How the values were obtained:
[1] = sheep, bolus; versus FeSO4; most notably at 30 hours; FIG. 3
Method: In the following examples sheep were given a bolus injection like in Example 19 and then blood uptake was measured at various intervals.
The Fe-EDA (Example 9) and the Fe-EDA (Example 16) were tested for iron uptake in the blood in comparison with the bolus injection of FeSO4.

[2] = Sheep bolus test, manganese blood uptake; format: in vivo; conditions: 30 hour
Excerpt: Tests like in Example 19 and 21 were run with MnSO4 in comparison with Mn-EDA of Example 10. At all points Manganese blood uptake of the sheep was at lower levels than other tested ligands. This may be a characteristic of Mn itself.

Cobb male broilers = test: Poultry trial with Cobb male broilers; format: in vivo; conditions: Cobb male broilers from 1 day old; 80 ppm supplemental Zn; Zn-EDA group = 40 ppm Zn from ZnSO4 + 40 ppm Zn from Zn-EDA
Excerpt: Animals were Cobb male broilers. The experiment was started with 1 day old animals. ZnSO4 was used as a comparative example using 80 ppm zinc from ZnSO4. Zn-EDA replaced 40 ppm of the zinc so there was 40 ppm Zn from ZnSO4 and 40 ppm Zn from Zn-EDA and compared to 80 ppm Zn from ZnSO4. Actual broiler integrator diets were used. They contain 500 ftu of phytase and an NSP enzyme (nonstarch polysaccride degrading enzyme). The plane of nutrition is targeted to be at AgriStat's 75th percentile. […] There were 12 replicates per treatment and 21 birds per replicate.

Row | Compound | iron uptake in the blood [1] | Manganese blood uptake [2] | other results
1 | NCCN.[Cl][Fe][Cl] [Example 16, 1,2 Diaminoethane—iron(II) chloride] | better at every interval than inorganic iron sulfate | – | –
2 | 1,2 Diaminoethane dihydrochloride—manganese(II) chloride [Example 10] | – | 33 | –
3 | Cl.Cl.NCCN.[Cl][Fe][Cl] [Example 9, 1,2 Diaminoethane dihydrochloride—iron(II) chloride] | better at every interval than inorganic iron sulfate | – | –
4 | O=S(=O)([O-])[O-].[Zn+2] [ZnSulfate, ZnSO4] | – | – | Body Wt. (Cobb male broilers): 2.212 kg; Feed Conversion (Cobb male broilers): 1.531; Mortality (Cobb male broilers): 4.71%
5 | O=S(=O)([O-])[O-].[Mn+2] [MnSO4] | – | 24 | –

— US8968807B1, “Use of ethylene diamine metal complexes to deliver highly absorbable metals for animal nutrition” (Zinpro Corporation, priority 2013, dated 2015)
